Literature values in patent US20190032079A1, “SYSTEMIC SYNTHESIS AND REGULATION OF L-DOPA” (MYODOPA LIMITED, priority 2015, published 2019).
Where two headings read alike, the source gives them in different places. Blank lines part the entries; values can stand above or below the compound they belong to.

Assays:
[1] = biological target: TH (Rattus norvegicus, UniProt P04177)
[2] = system: TH
[3] = biological target: THΔ32 (Rattus norvegicus, UniProt P04177)
[4] = biological target: THΔ68 (Rattus norvegicus, UniProt P04177)
Chain of THΔ68 (P04177 69-498 limits assumed, stated change not applied): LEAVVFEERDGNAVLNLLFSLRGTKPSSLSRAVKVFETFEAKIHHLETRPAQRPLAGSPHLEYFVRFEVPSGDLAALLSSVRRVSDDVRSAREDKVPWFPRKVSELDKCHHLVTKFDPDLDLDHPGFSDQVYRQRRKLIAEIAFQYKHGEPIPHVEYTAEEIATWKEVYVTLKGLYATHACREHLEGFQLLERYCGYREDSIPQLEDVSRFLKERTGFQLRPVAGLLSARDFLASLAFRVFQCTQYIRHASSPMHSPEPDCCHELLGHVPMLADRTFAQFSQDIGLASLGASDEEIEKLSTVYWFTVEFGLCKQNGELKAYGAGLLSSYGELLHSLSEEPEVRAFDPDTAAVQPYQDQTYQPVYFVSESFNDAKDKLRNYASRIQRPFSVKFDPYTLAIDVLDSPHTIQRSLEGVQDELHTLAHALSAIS

[5] = intra-intestinal infusion; improved control of PD and dyskinesia
[6] = preincubation with stoichiometric amounts of dopamine

Chain of TH (Rattus norvegicus, UniProt P04177) (P04177 whole entry): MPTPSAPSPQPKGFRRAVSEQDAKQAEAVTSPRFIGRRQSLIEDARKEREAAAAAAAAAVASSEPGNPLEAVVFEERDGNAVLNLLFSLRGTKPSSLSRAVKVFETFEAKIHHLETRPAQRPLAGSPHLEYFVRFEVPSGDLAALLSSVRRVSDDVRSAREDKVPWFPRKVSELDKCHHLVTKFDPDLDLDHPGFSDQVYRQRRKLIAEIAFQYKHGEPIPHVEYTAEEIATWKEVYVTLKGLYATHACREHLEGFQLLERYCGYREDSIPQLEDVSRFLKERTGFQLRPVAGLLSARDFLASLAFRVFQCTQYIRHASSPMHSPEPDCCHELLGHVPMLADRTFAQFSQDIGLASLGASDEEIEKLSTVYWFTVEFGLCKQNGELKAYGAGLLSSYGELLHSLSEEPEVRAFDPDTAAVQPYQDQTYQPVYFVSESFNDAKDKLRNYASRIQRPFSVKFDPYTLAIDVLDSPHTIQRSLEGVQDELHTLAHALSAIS
Chain of THΔ32 (P04177 33-498 limits assumed, stated change not applied): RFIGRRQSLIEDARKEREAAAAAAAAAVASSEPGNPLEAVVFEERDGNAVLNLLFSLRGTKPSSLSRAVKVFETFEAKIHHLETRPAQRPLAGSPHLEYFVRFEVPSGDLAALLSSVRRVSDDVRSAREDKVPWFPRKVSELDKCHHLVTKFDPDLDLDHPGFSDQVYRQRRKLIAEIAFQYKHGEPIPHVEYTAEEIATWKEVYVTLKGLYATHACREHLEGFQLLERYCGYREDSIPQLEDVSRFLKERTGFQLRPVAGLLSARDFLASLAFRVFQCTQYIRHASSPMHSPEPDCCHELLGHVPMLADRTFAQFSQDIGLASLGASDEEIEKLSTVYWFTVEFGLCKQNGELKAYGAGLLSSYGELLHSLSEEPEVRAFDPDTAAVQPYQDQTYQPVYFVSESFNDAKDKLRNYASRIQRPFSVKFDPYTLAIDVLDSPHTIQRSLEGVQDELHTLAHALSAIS

therapeutic range for plasma L-DOPA: 0.2 to 1.5 mg/L
Structure (SMILES): N[C@@H](Cc1ccc(O)c(O)c1)C(=O)O [L-DOPA, L-3,4-dihydroxyphenylalanine]

Structure (SMILES): O=C(O)Cc1ccc(O)c(O)c1 [dihydroxyphenylacetate]
binds less tightly than DOPA ([1]; relative to DOPA): 100 fold

binds more tightly than DOPA ([1]; relative to DOPA): 1000 fold
decrease of DA affinity for TH when the enzyme is phosphorylated ([1]; ser40 phosphorylation): 300 fold
Kd ([2]; read-out: K(D), second low affinity dopamine-binding site, present in non-phosphorylated and Ser40-phosphorylated forms): 0.09 µM
dopamine release from the enzyme [3]: not released
inhibition by dopamine [3, 6]: 90%
dopamine release from the enzyme [4]: rapidly released
inhibition by dopamine [4, 6]: not inhibited
Structure (SMILES): NCCc1ccc(O)c(O)c1 [dopamine]
increase of TH activity on dissociation of dopamine from the low-affinity site ([2]; Ser40-phosphorylated enzyme): 9 fold
increase of TH activity on dissociation of dopamine from the low-affinity site ([2]; non-phosphorylated enzyme): 12 fold

Structure (SMILES): COC(=O)[C@@H](N)Cc1ccc(O)c(O)c1 [levodopa methyl ester]
plasma levels of Levodopa [5]: 3 to 4 µg/mL
